Consider one compound from the NIST ThermoML archive (doi:10.1021/je600527c).

Data set [1] can be described thus: refractive index (Na D-line) (dimensionless). As to conditions: 298.15 K; 101.33 kPa; Liquid; Standard Abbe refractometry.
For data set [2] the following is noted: 298.15 K; 101.33 kPa; Liquid; Pycnometric method.

± gives the expanded uncertainty stated by the source.

By refractive index is commonly meant a measure of how strongly the sample bends light. For orientation: mass density means mass per unit of volume. For the compound `CC(=O)O` [acetic acid], the refractive index in data set [1] is 1.37 ± 0.001. In addition, in data set [2], the mass density is given as 1045 ± 8 kg/m3.
